Consider two compounds from patent US10130096B2, “Method for protecting useful plants or plant propagation material” (SYNGENTA PARTICIPATIONS AG, priority 2011, dated 2018).

One may read the pest or weed control as the degree to which the test organism was suppressed or injured, in per cent.

For experiment [1], the system named is Botryotinia fuckeliana (Botrytis cinerea). Kind of experiment: Botryotinia fuckeliana liquid culture growth inhibition. In kind it is cell-based. The conditions noted are these: photometric, 3-4 days after application, read-out: control on Botryotinia fuckeliana. As to the method: Conidia of the fungus from cryogenic storage are directly mixed into nutrient broth (Vogels broth). After placing a (DMSO) solution of test compound into a microtiter plate (96-well format), the nutrient broth containing the fungal spores is added.

For experiment [2], the system named is Monographella nivalis (Microdochium nivale). The experiment can be described thus: Monographella nivalis liquid culture growth inhibition. In kind it is cell-based. The note with it: photometric, 4-5 days after application, read-out: control on Monographella nivalis. The method, then:
Conidia of the fungus from cryogenic storage are directly mixed into nutrient broth (PDB potato dextrose broth). After placing a (DMSO) solution of test compound into a microtiter plate (96-well format), the nutrient broth containing the fungal spores is added. The test plates are incubated at 24° C. and the inhibition of growth is determined photometrically 4-5 days after application.

Experiment [3] has as its system Thanatephorus cucumeris (Rhizoctonia solani). The experiment can be described thus: Thanatephorus cucumeris liquid culture growth inhibition. In kind it is cell-based. The conditions noted are these: photometric, 3-4 days after application, read-out: control on Thanatephorus cucumeris. The method, then:
Mycelia fragments of a newly grown liquid culture of the fungus are directly mixed into nutrient broth (PDB potato dextrose broth). After placing a (DMSO) solution of the test compounds into a microtiter plate (96-well format), the nutrient broth containing the fungal material is added. The test plates are incubated at 24° C. and the inhibition of growth is determined photometrically 3-4 days after application.

Experiment [4] relates to Glomerella lagenarium (Colletotrichum lagenarium). Kind of experiment: Glomerella lagenarium liquid culture growth inhibition. In kind it is cell-based. The note with it: Colletotrichum orbiculare, photometric, 3-4 days after application, read-out: control on Glomerella lagenarium. As to the method:
(§1) Conidia of the fungus from cryogenic storage are directly mixed into nutrient broth (PDB potato dextrose broth). After placing a (DMSO) solution of test compound into a microtiter plate (96-well format), the nutrient broth containing the fungal spores is added.

In another experiment the test system is Fusarium culmorum. The experiment can be described thus: Fusarium culmorum liquid culture growth inhibition. The conditions noted are these: photometric, 3-4 days after application, read-out: control on Fusarium culmorum. Format: cell-based. As to the method: Conidia of the fungus from cryogenic storage are directly mixed into nutrient broth (PDB potato dextrose broth). After placing a (DMSO) solution of test compound into a microtiter plate (96-well format), the nutrient broth containing the fungal spores is added. The test plates are incubated at 24° C. and the inhibition of growth is determined photometrically 3-4 days after application.

For experiment [5], the system named is Mycosphaerella arachidis (Cercospora arachidicola). Kind of experiment: Mycosphaerella arachidis liquid culture growth inhibition. In kind it is cell-based. The conditions noted are these: photometric, 4-5 days after application, read-out: control on Mycosphaerella arachidis. As to the method: as §1
For experiment [6], the system named is Pythium ultimum. The experiment can be described thus: Pythium ultimum liquid culture growth inhibition. The note with it: Globisporangium ultimum, photometric, 2-3 days after application, read-out: control on Pythium ultimum. In kind it is cell-based. The method, then:
Mycelia fragments and oospores of a newly grown liquid culture of the fungus are directly mixed into nutrient broth (PDB potato dextrose broth). After placing a (DMSO) solution of test compound into a microtiter plate (96-well format), the nutrient broth containing the fungal mycelia/spore mixture is added.

The next experiment relates to Alternaria solani. Kind of experiment: Alternaria solani on tomato plants. Format: in vivo. The conditions noted are these: 4-week old tomato plants cv. Roter Gnom, spray, inoculated two days after application. The method, then: 4-week old tomato plants cv. Roter Gnom are sprayed in a spray chamber with the formulated test compound diluted in water. The test plants are inoculated by spraying them with a spore suspension two days after application. The inoculated test plants are incubated at 22/18° C. (day/night) and 95% rh in a greenhouse and the percentage leaf area covered by disease is assessed when an appropriate level of disease appears on untreated check plants (5-7 days after application).

Experiment [7] has as its system Pythium ultimum. The experiment can be described thus: Pythium ultimum on Cotton/Pouch. Format: in vivo. The note with it: Globisporangium ultimum, 168 h, cotton, pouch, 7 days at 17° C. From the text: A spore/mycelium suspension is pipetted into the pouch simultaneously.
The test system of experiment [8] is Pseudoperonospora cubensis. Kind of experiment: Pseudoperonospora cubensis on Cucumber/Pouch. Format: in vivo. The conditions noted are these: 60 ppm; cucumber, pouch, inoculated 8 days after sowing, 7 days incubation. An excerpt:
8 days after sowing cucumber plants were inoculated by spraying a spore suspension on the test plants.

Experiment [9] relates to Pythium ultimum. The experiment can be described thus: Example B-5: seed treatment against Pythium ultimum on cotton. In kind it is in vivo. The conditions noted are these: Globisporangium ultimum, rate of 200 g/100 kg seeds, infested soil, number of germinated, healthy plants. As to the method: The trial is kept for 1 week in a growth room at 20° C. and darkness. After this period the trial is transferred to a greenhouse where a temperature of 21° C. and a 14 h light period is provided until the trial is finished. The following assessments are made: number of germinated, healthy plants. Each number is determined for 150 seeds per treatment (3 replicates a 50 seeds).

In the next experiment the test system is Puccinia recondita. The experiment can be described thus: Puccinia recondita on Wheat/Pouch. The note with it: 20 ppm; wheat, pouch, inoculated 8 days after sowing, 8 days incubation. Format: in vivo. As to the method: 8 days after sowing wheat plants were inoculated by spraying a spore suspension on the test plants. After an incubation period of 8 days at 24° C./22° C.

As for `NCCCOB1OCc2cc(Cl)ccc21` [Compound 5, 3-(5-Chloro-3H-benzo[c][1,2]oxaborol-1-yloxy)-propylamine], the inhibition of growth at 200 ppm (in [1]; in experiment [2]; in experiment [3]; in experiment [4]; in the experiment with Fusarium culmorum; in experiment [5]) was at least 80% throughout. Further, in the experiment with Pythium ultimum [6], the inhibition of growth at 200 ppm was at least 80%. Besides, the pest or weed control at 60 ppm with Alternaria solani is at least 60%. This compound also gave a pest or weed control at 20 ppm with Pythium ultimum [7] of at least 50%. Besides, in experiment [8], the “control on Pseudoperonospora cubensis” value was “at least 50%”. The compound also had a pest or weed control at 200 g/100 kg seeds with Pythium ultimum [9] of at least 50%.
`O=[N+]([O-])c1ccc2c(c1)B(O)OC2` [Compound 7, 6-Nitro-3H-benzo[c][1,2]oxaborol-1-ol]: the inhibition of growth at 200 ppm (in [2]; in experiment [4]; in [5]; with Pythium ultimum [6]) was at least 80% each time. The compound further registered a pest or weed control at 60 ppm in the experiment on Alternaria solani of at least 60%. The pest or weed control at 20 ppm with Pythium ultimum [7] was at least 50%. In the experiment with Puccinia recondita, the “control on Puccinia recondita” value is given as “at least 50%”.
